Source: patent publication US5607691A, “Compositions and methods for enhanced drug delivery” (priority 1995, dated 1997)
Counter-ions that a name gives are not always drawn.

Experiment: in vitro
Assay type: in vitro ADME, human
Details: human, serum
In short: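 Complex from 6 mM ethanol stock added to freshly defrosted human serum at 37° C. Aliquots quenched in 2% zinc sulfate, centrifuged, and supernatant analysed by reversed-phase C8 HPLC for % remaining by peak area. Half-life from slope of ln % remaining vs time.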
In the case of `CC(=O)[C@H]1CC[C@H]2[C@@H]3CC=C4C=C(OC(=O)C[N+](C)(C)C)CC[C@]4(C)[C@H]3CC[C@]12C.[Br-]` [progesterone-3-betainoyl enol ester, bromide salt], the “Serum Half-life” value is reported as 1.6 min.

Same assay, conditions: human, serum, Table 5; human serum, 37° C.; read-out: Serum Half-life (converted)
`CC1OC(OC2CCC3(C)C(CCC4C3CC(OC(=O)CCCN(C)C)C3(C)C(C5=CC(=O)OC5)CCC43O)C2)CC(O)C1OC1CC(O)C(OC2CC3OC(=O)OC3C(C)O2)C(C)O1` (stereo not drawn) [digoxin-12-[4-(N,N-dimethylamino)butyrate]-3"',4'"-cyclic carbonate, hydrochloride salt] gave a half-life of 24 h.
In the case of `CC(CCCC(=O)OC1CC2C(CCC3CC(OC4CC(O)C(OC5CC(O)C(OC6CC7OC(=O)OC7C(C)O6)C(C)O5)C(C)O4)CCC32C)C2(O)CCC(C3=CC(=O)OC3)C12C)OC(=O)CCC[N+](C)(C)C` (stereo not drawn) [digoxin-12-[5-(4-trimethylaminobutyroyloxy)-hexanoate]-3'",4'"-cyclic carbonate], the half-life is reported as 504 h.
`CC1OC(OC2CCC3(C)C(CCC4C3CC(OC(=O)CCCCC[N+](C)(C)C)C3(C)C(C5=CC(=O)OC5)CCC43O)C2)CC(O)C1OC1CC(O)C(OC2CC3OC(=O)OC3C(C)O2)C(C)O1` (stereo not drawn) [digoxin-12-[6-(N,N,N-trimethylamino)hexanoate]-3'"-4'"-cyclic carbonate, bromide salt] showed a half-life of 336 h.
`CC1OC(OC2CCC3(C)C(CCC4C3CC(OC(=O)CCCCCN(C)C)C3(C)C(C5=CC(=O)OC5)CCC43O)C2)CC(O)C1OC1CC(O)C(OC2CC3OC(=O)OC3C(C)O2)C(C)O1` (stereo not drawn) [digoxin-12-[6-(N,N-dimethylamino)hexanoate]-3'",4'"-cyclic carbonate] gave a half-life of 605 h.
With `C[C@H]1O[C@@H](O[C@H]2[C@@H](O)C[C@H](O[C@H]3[C@@H](O)C[C@H](O[C@H]4CC[C@@]5(C)[C@H](CC[C@@H]6[C@@H]5C[C@@H](OC(=O)OC[N+](C)(C)CCCCCC(=O)O)[C@]5(C)[C@@H](C7=CC(=O)OC7)CC[C@]65O)C4)O[C@@H]3C)O[C@@H]2C)C[C@@H]2OC(=O)O[C@@H]21` [digoxin-12-[N-(5-carboxypentyl)-N,N-dimethylaminomethyl carbonate]-3"',4"'-cyclic carbonate, bromide salt] the half-life was 0.8 h.
`C[C@H]1O[C@@H](O[C@H]2[C@@H](O)C[C@H](O[C@H]3[C@@H](O)C[C@H](O[C@H]4CC[C@@]5(C)[C@H](CC[C@@H]6[C@@H]5C[C@@H](OC(=O)c5cccnc5)[C@]5(C)[C@@H](C7=CC(=O)OC7)CC[C@]65O)C4)O[C@@H]3C)O[C@@H]2C)C[C@@H]2OC(=O)O[C@@H]21` [digoxin-12-nicotinate ester-3"',4"'-cyclic carbonate] gave a half-life of 331 h.
In the case of `C[C@H]1O[C@@H](O[C@H]2[C@@H](O)C[C@H](O[C@H]3[C@@H](O)C[C@H](O[C@H]4CC[C@@]5(C)[C@H](CC[C@@H]6[C@@H]5C[C@@H](OC(=O)[C@@H]5CCC[N+]5(C)C)[C@]5(C)[C@@H](C7=CC(=O)OC7)CC[C@]65O)C4)O[C@@H]3C)O[C@@H]2C)C[C@@H]2OC(=O)O[C@@H]21` [digoxin-12-stachydrine ester-3"',4"'-cyclic carbonate, chloride salt], the half-life is reported as 4.9 h.
`C[C@]12CCC(=O)C(OC(=O)OCC[N+](C)(C)C)=C1CC[C@@H]1[C@@H]2CC[C@]2(C)C(=O)CC[C@@H]12` [formestane-4-choline carbonate, bromide salt] gave a half-life of 0.433 h.
`CCCC[N+](C)(C)CCOC(=O)Cc1c(C)n(C(=O)c2ccc(Cl)cc2)c2ccc(OC)cc12` [indomethacin 2-(N-(1-butyl)-N,N-dimethylaminoethyl ester, bromide salt] gave a half-life of 0.0106 h.
`COc1ccc2c(c1)c(CC(=O)OCC[N+](C)(C)CCO)c(C)n2C(=O)c1ccc(Cl)cc1` [indomethacin 2-(N-(2-hydroxyethyl)-N,N-dimethyl) aminoethyl ester, bromide salt] showed a half-life of 0.0163 h.
With `COc1ccc2c(c1)c(CC(=O)OCCNC(=O)CCCCC[N+](C)(C)C)c(C)n2C(=O)c1ccc(Cl)cc1` [indomethacin 2-[N-(6'-N',N',N'-trimethylamino)-hexanamido]ethyl ester, iodide salt] the half-life was 22.6 h.
`COc1ccc2c(c1)c(CC(=O)OCCNC(=O)CCCCCN(C)C)c(C)n2C(=O)c1ccc(Cl)cc1` [indomethacin 2-[N-(6'-N',N'-dimethylamino)hexanamido]ethyl ester] gave a half-life of 13.6 h.
`COc1ccc2c(c1)c(CC(=O)OCCN(C)C(=O)CCCCC[N+](C)(C)C)c(C)n2C(=O)c1ccc(Cl)cc1` [indomethacin 2-[N-methyl-N-(6'-N',N',N'-trimethyl-amino)hexanamido]ethyl ester, iodide salt] showed a half-life of 3.4 h.
Work on `COc1ccc2c(c1)c(CC(=O)OCCN(C)C(=O)CCCCCN(C)C)c(C)n2C(=O)c1ccc(Cl)cc1` [indomethacin 2-[N-methyl-N-(6'-N',N'-dimethylamino)hexanamido]ethyl ester] yielded a half-life of 0.225 h.
In the case of `COc1ccc2c(c1)c(CC(=O)OCOC(=O)CCCCCNC(=O)C[C@H](C[N+](C)(C)C)OC(C)=O)c(C)n2C(=O)c1ccc(Cl)cc1` [indomethacin 6-(O-acetyl-L-carnitinamido)hexanoyloxymethyl ester, chloride salt], the half-life is reported as 0.5 h.
For `CCN(CC)C(=O)COC(=O)Cc1c(C)n(C(=O)c2ccc(Cl)cc2)c2ccc(OC)cc12` [indomethacin (N,N-diethylglycolamide) ester], the half-life was 0.38 h.
For `CCOC(=O)Cc1c(C)n(C(=O)c2ccc(Cl)cc2)c2ccc(OC)cc12` [indomethacin ethyl ester, reference compound], the half-life was > 96 h.
Work on `COc1ccc2c(c1)c(CC(=O)COC(=O)OCC[N+](C)(C)C)c(C)n2C(=O)c1ccc(Cl)cc1` [indomethacin hydroxymethyl ketone choline iodide carbonate] yielded a half-life of 0.0181 h.
Work on `COc1ccc2c(c1)c(CC(=O)CO)c(C)n2C(=O)c1ccc(Cl)cc1` [indomethacin hydroxymethyl ketone] yielded a half-life of 15 h.
Work on `COC(=O)Cc1c(C)n(C(=O)c2ccc(Cl)cc2)c2ccc(OC)cc12` [indomethacin methyl ester, reference compound] yielded a half-life of 144 h.
`CC(=O)O[C@H](CC(=O)OC1N=C(c2ccccc2Cl)c2cc(Cl)ccc2NC1=O)C[N+](C)(C)C` (stereo partly drawn) [lorazepam-3-(O-acetylcarnitine) ester chloride salt] showed a half-life of 5.2 h.
With `C[N+](C)(C)CCOC(=O)OC1N=C(c2ccccc2Cl)c2cc(Cl)ccc2NC1=O` (stereo not drawn) [lorazepam-3-choline carbonate, chloride salt] the half-life was 2.2 h.
In the case of `COc1ccc2c(c1)c(CCNC(C)=O)cn2C(=O)OCC[N+](C)(C)C` [melatonin-1-choline carbamate, bromide salt], the half-life is reported as 15 h.
`CN(Cc1cnc2nc(N)nc(N)c2n1)c1ccc(C(=O)N[C@@H](CCC(=O)OCOC(=O)CCC[N+](C)(C)C)C(=O)OCOC(=O)CCC[N+](C)(C)C)cc1` [methotrexate-bis-(4-trimethylammoniobutyroyloxymethyl ester), diiodide salt] showed a half-life of 1.8 h.
Compound `CN(Cc1cnc2nc(N)nc(N)c2n1)c1ccc(C(=O)N[C@@H](CCC(=O)OCC[N+](C)(C)C)C(=O)OCC[N+](C)(C)C)cc1` [methotrexate-bis-choline ester, dibromide salt] has a half-life of 14 h.
Work on `CCn1cc(C(=O)OCOC(=O)CCCCC[N+](C)(C)C)c(=O)c2ccc(C)nc21` [nalidixic acid 6-(N,N,N-trimethylamino)-hexanoyloxymethyl ester, iodide salt] yielded a half-life of 0.08 h.
`CCn1cc(C(=O)OCC[N+](C)(C)C)c(=O)c2ccc(C)nc21` [nalidixic acid, choline ester, bromide salt] gave a half-life of 1.1 h.
With `CCn1cc(C(=O)OCOC(=O)OCC[N+](C)(C)C)c(=O)c2ccc(C)nc21` [nalidixic acid, cholinecarbonato methyl ester, iodide salt] the half-life was 0.0211 h.
`O=C(OCCc1ccc([N+](=O)[O-])cc1)c1cccnc1` [p-nitrophenylethyl alcohol nicotinate ester] gave a half-life of 0.00722 h.
With `C[n+]1cccc(C(=O)OCCc2ccc([N+](=O)[O-])cc2)c1` [p-nitrophenylethyl alcohol trigonelline ester] the half-life was 0.467 h.
With `CC(=O)[C@H]1CC[C@H]2[C@@H]3CC=C4C=C(OC(=O)CCC[N+](C)(C)C)CC[C@]4(C)[C@H]3CC[C@]12C` [progesterone-3-(4-N,N,N-trimethylammoniobutyrate) enol ester, bromide salt] the half-life was 3 h.
Compound `CC(=O)O[C@H](CC(=O)OC[C@H](NC(=O)OCc1ccccc1)C(=O)OCc1ccccc1)C[N+](C)(C)C` [serine, L-isomer, HO-(O-acetyl-L-carnitine ester) N-CBZ, benzyl ester] has a half-life of 0.35 h.
Work on `C[n+]1cccc(C(=O)OC[C@H](NC(=O)OCc2ccccc2)C(=O)OCc2ccccc2)c1` [serine, L-isomer, HO-trigonellate ester, N-CBZ, benzyl ester] yielded a half-life of 0.0833 h.
Work on `C[C@]12CC[C@H]3[C@@H](CCC4=CC(=O)CC[C@@]43C)[C@@H]1CC[C@@H]2OC(=O)OCOC(=O)CCCCC[N+](C)(C)C` [testosterone-17-(6-trimethylammoniohexanoyloxymethyl) carbonate, bromide salt] yielded a half-life of 0.317 h.
With `CCOC(=O)C[C@H](C[N+](C)(C)C)OC(=O)O[C@H]1CC[C@H]2[C@@H]3CCC4=CC(=O)CC[C@]4(C)[C@H]3CC[C@]12C` [testosterone-17-(L-carnitineethyl ester) carbonate, iodide salt] the half-life was 0.817 h.
In the case of `CC(=O)O[C@H](CC(=O)O[C@H]1CC[C@H]2[C@@H]3CCC4=CC(=O)CC[C@]4(C)[C@H]3CC[C@]12C)C[N+](C)(C)C` [testosterone-17-(O-acetyl-L-carnitinate), chloride salt], the half-life is reported as 96 h.
`CCCCCCCCCCCCCCCC(=O)O[C@H](CC(=O)O[C@H]1CC[C@H]2[C@@H]3CCC4=CC(=O)CC[C@]4(C)[C@H]3CC[C@]12C)C[N+](C)(C)C` [testosterone-17-(O-palmityl-L-carnitinate), chloride salt] showed a half-life of 118 h.
`C[C@]12CC[C@H]3[C@@H](CCC4=CC(=O)CC[C@@]43C)[C@@H]1CC[C@@H]2OC(=O)OCOC(=O)C[N+](C)(C)C` [testosterone-17-betainoyloxymethyl carbonate, iodide salt] gave a half-life of 0.0106 h.
